These results are taken from patent US4292317A, “1,4-Dihydro-quinoline-3-carboxylic acid derivatives, process for their preparation and compositions containing them” (Laboratorie Roger Bellon, priority 1977, dated 1981).

What all share (type): cell-based
One experiment relates to Arizona 6.211. Kind of experiment: M.I.C. in vitro, nutrient agar dilution. The following applies: 18 h, read-out: M.I.C. As to the method: (§1) After sterilisation at 120° C., the pH was 6.8.
(§2) The minimum inhibitory concentrations (M.I.C.) were determined by dilution of the test compounds in this mixture, the concentration ranging from 0.05 to 100 μg/cm^3 in a geometric progression with a factor of 2.
(§3) The inoculation of the dishes was carried out by means of a multiple inoculator with 10^-3 dilutions of 18 hour old broth cultures.
(§4) The dishes were placed in an oven at 37° C. and the readings were taken afer an incubation time of 18 hours. The M.I.C. was taken as the lowest concentration which inhibited a culture.
Background: In agar dilution the substance is mixed into plates at graded concentrations.

For a further experiment, the system named is Pr. mirabilis Nig. Kind of experiment: M.I.C. in vitro, nutrient agar dilution. To be noted: Proteus mirabilis, 18 h, read-out: M.I.C. The procedure:
as §1, §2, §3, §4

A further experiment relates to Serratia. Kind of experiment: M.I.C. in vitro, nutrient agar dilution. To be noted: 18 h, read-out: M.I.C. The procedure: as §1, §2, §3, §4
The next experiment has as its system Staph. 9.144. The experiment can be described thus: M.I.C. in vitro, nutrient agar dilution. To be noted: 18 h, read-out: M.I.C. As to the method: as §1, §2, §3, §4
In another experiment the test system is Strepto D.M. 19. The experiment can be described thus: M.I.C. in vitro, nutrient agar dilution. To be noted: 18 h, read-out: M.I.C. The procedure: as §1, §2, §3, §4
A further experiment concerns Esch. coli 95 I.S.M. Kind of experiment: M.I.C. in vitro, nutrient agar dilution. The following applies: Escherichia coli, 18 h, read-out: M.I.C. The procedure: as §1, §2, §3, §4
A further experiment concerns Ps. aeruginosa 72.345. The experiment can be described thus: M.I.C. in vitro, nutrient agar dilution. To be noted: Pseudomonas aeruginosa, 18 h, read-out: M.I.C. The procedure: as §1, §2, §3, §4
The next experiment relates to Providentia 0223. The experiment can be described thus: M.I.C. in vitro, nutrient agar dilution. To be noted: 18 h, read-out: M.I.C. As to the method: as §1, §2, §3, §4
The next experiment relates to Esch. coli 111 B4. Kind of experiment: M.I.C. in vitro, nutrient agar dilution. To be noted: Escherichia coli, 18 h. As to the method: as §1, §2, §3, §4
A further experiment concerns S. oranienburg 1066. The experiment can be described thus: M.I.C. in vitro, nutrient agar dilution. To be noted: Salmonella enterica, 18 h, read-out: M.I.C. The procedure:
as §1, §2, §3, §4

For another experiment, the system named is Pr. vulgaris 12-53. The experiment can be described thus: M.I.C. in vitro, nutrient agar dilution. The following applies: Proteus vulgaris, 1253, 18 h, read-out: M.I.C. The procedure:
as §1, §2, §3, §4

In a further experiment the test system is Ps. aeruginosa A.22. The experiment can be described thus: M.I.C. in vitro, nutrient agar dilution. The following applies: Pseudomonas aeruginosa, 18 h, read-out: M.I.C. The procedure:
as §1, §2, §3, §4

In another experiment the test system is B. subtilis. Kind of experiment: M.I.C. in vitro, nutrient agar dilution. To be noted: Bacillus subtilis, 18 h, read-out: M.I.C. As to the method: as §1, §2, §3, §4
The subject of the next experiment is Esch. coli 54.127 O.M.S. The experiment can be described thus: M.I.C. in vitro, nutrient agar dilution. To be noted: Escherichia coli, 18 h, read-out: M.I.C. As to the method:
as §1, §2, §3, §4

The test system of a further experiment is Bord. bronchis. 4.617. Kind of experiment: M.I.C. in vitro, nutrient agar dilution. The following applies: 18 h, read-out: M.I.C. The procedure: as §1, §2, §3, §4
For a further experiment, the system named is Klebs. pneum. 10.031. The experiment can be described thus: M.I.C. in vitro, nutrient agar dilution. To be noted: 18 h, read-out: M.I.C. As to the method: as §1, §2, §3, §4
The subject of the next experiment is S. enteritidis Danysz. The experiment can be described thus: M.I.C. in vitro, nutrient agar dilution. The following applies: Salmonella enterica, 18 h, read-out: M.I.C. The procedure:
as §1, §2, §3, §4

The subject of another experiment is Pr. morganii A.236. The experiment can be described thus: M.I.C. in vitro, nutrient agar dilution. To be noted: Morganella morganii, 18 h, read-out: M.I.C. As to the method:
as §1, §2, §3, §4

The subject of the next experiment is Sh. sonnei I.P.S. Kind of experiment: M.I.C. in vitro, nutrient agar dilution. To be noted: Shigella sonnei, 18 h, read-out: M.I.C. As to the method:
as §1, §2, §3, §4

A further experiment concerns Staph. 209 P. The experiment can be described thus: M.I.C. in vitro, nutrient agar dilution. The following applies: 18 h, read-out: M.I.C. As to the method:
as §1, §2, §3, §4

The subject of the next experiment is Strepto A 561. The experiment can be described thus: M.I.C. in vitro, nutrient agar dilution. The following applies: 18 h. As to the method: as §1, §2, §3, §4
In another experiment the test system is Salm. typhi 0901. Kind of experiment: microbe, parasite or virus in culture. To be noted: Salmonella enterica, 18 h. As to the method:
as §1, §2, §3, §4

Each structure is given as a SMILES string. ≈ marks a conversion by molar mass, not a printed value. Read-outs that look alike come from different tables or passages of the source.

As to `CCn1cc(C(=O)O)c(=O)c2cc(Cl)c(N3CCNCC3)cc21` [Example 3, 6-Chloro-1-ethyl-4-oxo-7-piperazinyl-1,4-dihydro-quinoline-3-carboxylic acid], the MIC in the experiment with Arizona 6.211 (Table 2, Arizona 6.211 (Gram negative)) was 0.2 µg/mL (≈ 0.596 µM); with Pr. mirabilis Nig (Table 2, Pr. mirabilis Nig (Gram negative)), 0.2 µg/mL (≈ 0.596 µM); with Serratia (Table 2, Berratia (Gram negative)), 3.1 to 12.5 µg/mL (≈ 9.23 to 37.2 µM); in the experiment on Staph. 9.144 (Table 2, Staph. 9.144 (Gram positive)), 0.4 µg/mL (≈ 1.19 µM); with Strepto D.M. 19 (Table 2, Strepto D.M. 19 (Gram positive)), 1.6 to 3.1 µg/mL (≈ 4.76 to 9.23 µM); with Esch. coli 95 I.S.M. (Table 2, Esch. coli 95 I.S.M. (Gram negative)), 0.2 µg/mL (≈ 0.596 µM). For the same compound, the MIC in the experiment with Ps. aeruginosa 72.345 (Table 2, Ps. aeruginosa 72.345 (Gram negative)) is 1.6 to 3.1 µg/mL (≈ 4.76 to 9.23 µM); with Providentia 0223 (Table 2, Providentia 0223 (Gram negative)), 1.6 to 3.1 µg/mL (≈ 4.76 to 9.23 µM); in the experiment on Esch. coli 111 B4 (Table 2, Esch. coli 111 B4 (Gram negative)) it was 0.2 µg/mL (≈ 0.596 µM); in the experiment on S. oranienburg 1066 (Table 2, S. oranienburg 1066 (Gram negative)), 6.2 to 12.5 µg/mL (≈ 18.5 to 37.2 µM); in the experiment with Pr. vulgaris 12-53 (Table 2, Pr. vulgaris 12-53 (Gram negative)), 0.2 µg/mL (≈ 0.596 µM); with Ps. aeruginosa A.22 (Table 2, Ps. aeruginosa A.22 (Gram negative)), 1.6 to 3.1 µg/mL (≈ 4.76 to 9.23 µM). Besides, the MIC is 0.2 to 0.4 µg/mL (≈ 0.596 to 1.19 µM) in the experiment on B. subtilis (Table 2, B. subtilis (Gram positive)); 0.2 µg/mL (≈ 0.596 µM) in the experiment with Esch. coli 54.127 O.M.S. (Table 2, Esch. coli 54.127 O.M.S. (Gram negative)); 0.2 to 12.5 µg/mL (≈ 0.596 to 37.2 µM) in the experiment on Bord. bronchis. 4.617 (Table 2, Bord. bronchis. 4.617 (Gram negative)); 0.2 µg/mL (≈ 0.596 µM) in the experiment with Klebs. pneum. 10.031 (Table 2, Klebs. pneum. 10.031 (Gram negative)); 0.2 µg/mL (≈ 0.596 µM) in the experiment on S. enteritidis Danysz (Table 2, S. enteritidis Danysz (Gram negative)); 0.2 µg/mL (≈ 0.596 µM) in the experiment with Pr. morganii A.236 (Table 2, Pr. morganii A.236 (Gram negative)). Besides, the MIC with Sh. sonnei I.P.S. (Table 2, Sh. sonnei I.P.S. (Gram negative)) was 0.2 µg/mL (≈ 0.596 µM); in the experiment with Staph. 209 P (Table 2, Staph. 209 P (Gram positive)) it was 0.4 to 0.8 µg/mL (≈ 1.19 to 2.38 µM); against Strepto A 561 (Table 2, Strepto A 561 (Gram positive)) it was 6.2 µg/mL (≈ 18.5 µM); with Salm. typhi 0901 (Table 2, Salm. typhi 0901 (Gram negative)) it was 0.2 µg/mL (≈ 0.596 µM).
Consider `C=Cn1cc(C(=O)O)c(=O)c2cc(F)c(N3CCOCC3)cc21` [Example 42, 6-Fluoro-7-morpholino-4-oxo-1-vinyl-1,4-dihydro-quinoline-3-carboxylic acid], for which the MIC with Arizona 6.211 (Table III, Arizona 6.211) worked out at 0.8 µg/mL (≈ 2.51 µM); in the experiment on Pr. mirabilis Nig (Table III, Pr. mirabilis Nig) it was 1.6 µg/mL (≈ 5.03 µM); in the experiment with Serratia (Table III), 3.1 µg/mL (≈ 9.74 µM); with Staph. 9.144 (Table III, Staph. 9.144), 1.6 µg/mL (≈ 5.03 µM); in the experiment on Strepto D.M. 19 (Table III, Strepto D.M. 19), 12.5 µg/mL (≈ 39.3 µM); with Esch. coli 95 I.S.M. (Table III, Esch. coli 95 I.S.M.) it was 0.8 µg/mL (≈ 2.51 µM). Further, the MIC turned out to be 6.2 µg/mL (≈ 19.5 µM) with Ps. aeruginosa 72.345 (Table III, Pd. aeruginosa 72.345); 25 µg/mL (≈ 78.5 µM) in the experiment with Providentia 0223 (Table III, Providentia 0223); 0.8 µg/mL (≈ 2.51 µM) with Esch. coli 111 B4 (Table III, Esch. coli 111 B4); 100 µg/mL (≈ 314 µM) with S. oranienburg 1066 (Table III, S. oranienburg 1066); 0.8 µg/mL (≈ 2.51 µM) with Pr. vulgaris 12-53 (Table III, Pr. vulgaris 12-53); 3.1 µg/mL (≈ 9.74 µM) in the experiment with Ps. aeruginosa A.22 (Table III, Ps. aeruginosa A.22). Besides, the MIC worked out at 0.2 µg/mL (≈ 0.628 µM) in the experiment on B. subtilis (Table III, B. Subtilis); 0.8 µg/mL (≈ 2.51 µM) in the experiment with Esch. coli 54.127 O.M.S. (Table III, Esch. coli 54.127 O.M.S.); 12.5 µg/mL (≈ 39.3 µM) in the experiment with Bord. bronchis. 4.617 (Table III, Bord. bronchis. 4.617); 0.8 µg/mL (≈ 2.51 µM) in the experiment with Klebs. pneum. 10.031 (Table III, Klebs. pneum. 10.031); 1.6 µg/mL (≈ 5.03 µM) in the experiment with S. enteritidis Danysz (Table III, S. enteritidis Danysz); 0.2 µg/mL (≈ 0.628 µM) in the experiment on Pr. morganii A.236 (Table III, Pr. morganii A. 236). The MIC with Sh. sonnei I.P.S. (Table III, Sh. sonnei I.P.S.) came to 0.8 µg/mL (≈ 2.51 µM); in the experiment on Staph. 209 P (Table III, Staph. 209 P) it was 0.8 µg/mL (≈ 2.51 µM); against Strepto A 561 (Table III, Strepto A 561), 25 µg/mL (≈ 78.5 µM); against Salm. typhi 0901 (Table III, Salm. typhi 0901), 0.8 µg/mL (≈ 2.51 µM).
